Here are results for 1 molecule from patent publication EP4205737A1, “COMPOSITION FOR PREVENTION, AMELIORATION, OR TREATMENT OF INFLAMMATORY DISEASES OR IMMUNE DISEASES COMPRISING GANCAONIN N AS ACTIVE INGREDIENT” (UNIVERSITY-INDUSTRY COOPERATION GROUP OF KYUNG HEE …, priority 2020, dated 2022).

SMILES strings stand for the structures.

The test system of one series is RAW264.7 cells. The experiment in a line: Cell viability analysis (MTT), RAW264.7 cells. The series is classed as cell-based, murine. Conditions: Raw264.7 cells, 5, 10, 20, 40 µM, 24 hours, compared to the control group (FIG. 1A). How it is done: RAW264.7 murine macrophage cells were purchased from Korean Cell Line Bank (in Seoul, South Korea). A549 human alveolar basal epithelial cells were purchased from American Type Culture Collection (in ATCC, MD, USA). The cells were cultured in DMEM medium (manufactured by Corning Inc., NY, USA) containing 10% FBS (manufactured by Gibco, NY, USA) and 1X antibiotic-antimycotic solution (manufactured by ABAM, Corning Inc., NY, USA) under conditions of 37°C and 5% CO2.
To evaluate the cytotoxicity of gancaonin N, RAW264.7 cells and A549 cells were dispensed into 96-well plates (1 × 10^4 cells/well) and cultured under conditions of 37°C and 5% CO2. After the culturing, the cells were treated with gancaonin N at concentrations of 5, 10, 20, or 40 µM for 24 hours, and MTT solution (5 mg/mL) was added to each well. After adding 100 µL of dimethyl sulfoxide (DMSO, manufactured by Sigma-Aldrich, St. Louis, MO, USA), the absorbance was measured at 540 nm using a microplate reader (manufactured by Bio-Rad Hercules, CA, USA).
To examine the cytotoxicity of gancaonin N, the inventors treated Raw264.7 cells and A549 cells with gancaonin N according to the methods of Examples 1 to 4 and then measured cell viability.

The test system of series [1] is TNF-α. Kind of series: Real-time PCR of TNF-α mRNA in LPS-stimulated A549 cells. The series is classed as cell-based, human. Conditions: LPS 5 ug/mL, 5 to 40 µM, 24 hours, effect proportional to amount (FIG. 3A). How it is done:
A549 cells were dispensed into 6-well plates (1 × 10^6 cells/well) and cultured under conditions of 37°C and 5% CO2. After the culturing, the A549 cells were treated with of 5 ug/mL of lipopolysaccharide (LPS) and with 5 µM to 40 µM of gancaonin N, and the cells were then cultured for 24 hours. Afterwards, total RNA was isolated from each treated cell using Hybrid-RTM (GeneAll, South Korea). The isolated total RNA (500 ng) was converted to cDNA sequentially through incubation at 55°C for 60 minutes using oligo (dT) and incubation at 85°C for 5 minutes, and the cDNA was stored at 4°C until being used. In addition, real-time quantitative PCR was performed using Universal SYBR Green Master Mix (Applied Biosystems, USA), and the cDNA was amplified under conditions described below. 95°C for 15 minutes, then 95°C for 30 seconds, 59°C for 30 seconds, and 72°C for 30 seconds were repeated 40 times. […]
To investigate the inhibitory effect of gancaonin on the expression levels of pro-inflammatory cytokines, the mRNA expression levels of tumor necrosis factor-α (hereinafter referred to as TNF-α), interleukin-1 beta (hereinafter referred to as IL-1β), and interleukin 6 (hereinafter referred to as IL-6) which are all known as pro-inflammatory cytokines were measured. […]
For orientation: Quantitative PCR measures a nucleic acid by following its amplification.

Series [2] has as its system TNF-α. Kind of series: Western blotting of TNF-α protein in LPS-stimulated A549 cells. It is filed as cell-based, human. The following applies: LPS 5 µg/mL, 5 to 40 µM (FIG. 4A). On the procedure: (§1) RAW264.7 cells and A549 cells were dispensed into 6-well plates (1 × 10^6 cells/well) and cultured under conditions of 37°C and 5% CO2. After the culturing, the Raw 264.7 cells were treated with 1 µg/mL of lipopolysaccharide (LPS) and the A549 cells were treated with 5 µg/mL of lipopolysaccharide (LPS) and with 5 µM to 40 µM of gancaonin N, and the cells were cultured for 24 hours or 6 hours. Then, the cells were lysed using a lysis buffer. In addition, the left lung extracted from each mouse was lysed using RIPA buffer. SDS-PAGE electrophoresis was performed on the cell and tissue lysates to separate proteins by side, and 5% bovine serum albumin was used for culturing and for blocking antibodies against PGE2 (1:500), IL-1β (1:500), IL-6 (1:500), TNF-α (1:500), i-NOS (1:500), COX-2 (1:1000), P-ERK1/2 (1:1000), ERK1/2 (1:3000), P-p38 (1:1000), p38 (1:3000), NF-κB p65 (1:1000), Lamin B1 (1:1000), and β-actin (1: 5,000).
For the pro-inflammatory cytokines whose mRNA expression inhibition was confirmed as above, the expression level of the protein encoded by the mRNA was further checked. To determine the protein expression level, A549 cells were treated with LPS and gancaonin N as described in Examples 1 to 8, and the protein expression levels were checked.
For orientation: Immunoblotting shows a protein as a band on a membrane.

Series [3] has as its system extracellular signal-regulated kinase (ERK). Kind of series: MAPK/NF-κB signaling pathway: ERK in LPS-stimulated A549 cells. It is filed as cell-based, human. How it is done:
as §1
To identify through which pathway the anti-inflammatory response occurs, the role of gancaonin N in the MAPK/NF-κB signaling pathway was investigated. […]

The test system of the next series is IL-1β. The experiment in a line: Western blotting of IL-1β in lung of LPS-induced acute lung injury mouse model. It is filed as in vivo, BALB/c mice. Conditions: mice, 10 mg/kg or 30 mg/kg intraperitoneally, LPS-induced ALI, Western blotting (FIG. 8). How it is done: 25 6-week-old female BALB/c mice having a weight of 18g to 20 g were purchased from BioLink (DBL CO., Eumseong, Chungcheongbuk-do, Korea), and reared in the animal laboratory of KyungHee University. To establish an LPS-induced acute lung injury model, all the mice were divided into five groups each group of which consisted of 5 mice, and the five groups were referred to as control, vehicle (only LPS treatment), gancaonin N (10 mg/kg), gancaonin N (30 mg/kg), and dexamethasone (3 mg/kg). Gancaonin N was intraperitoneally injected at a dose of 10 mg/kg or 30 mg/kg, and dexamethasone was intraperitoneally injected at a dose of 3 mg/kg as a positive control group. In addition, the control and vehicle groups were intraperitoneally injected with 4% DMSO in which gancaonin N was dissolved. Then, 10 µg/50 µL of LPS was intratracheally administered to the mice except for the control group one hour later (the control group mice were administered 50 µL of PBS), and the mice were sacrificed 12 hours later.
RAW264.7 cells and A549 cells were dispensed into 6-well plates (1 × 10^6 cells/well) and cultured under conditions of 37°C and 5% CO2. […]
To specifically investigate whether gancaonin N can inhibit pro-inflammatory factors in a mouse model, the protein expression levels of COX-2, IL-1β, and TNF-α were measured by Western blotting as described in Examples 1 to 6 above.

On to `COc1ccc(-c2coc3cc(O)c(CC=C(C)C)c(O)c3c2=O)c(O)c1` [gancaonin N, 5,7-dihydroxy-3-(2-hydroxy-4-methoxyphenyl)-6-(3-methylbut-2-enyl)chromen-4-one], for which the cell viability result in the series with RAW264.7 cells is listed as “did not decrease”. The “mRNA expression of TNF-α” value in the series with TNF-α [1] is on record as “significantly inhibited”. Also, the “protein expression of TNF-α” value with TNF-α [2] was “significantly inhibited”. For the same molecule, the “activity/protein expression levels of ERK” value in series [3] (5µM to 40 µM 2 hours before LPS treatment (FIG. 5A)) is “significantly reduced”. In addition, in series [3] (LPS, tested 5µM to 40 µM), the “amount of gancaonin N at which the inhibitory effect on the activity/protein expression levels of ERK was most excellent” value was 40 µM. Further, the “protein expression level of IL-1β in lung” value in the series on IL-1β is recorded as “significantly reduced”.
